Measurements as given in ChEMBL document CHEMBL1201862, “PubChem BioAssay data set” (2004).
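All cell lines were grown in 96-well plates and treated with compound for 48 hours. GI50: concentration for 50% inhibition of growth.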 Active and inactive are the calls of the source. No stated cut-off is given here; in the data, active = GI50 up to about 1.1 µM and inactive = higher.

Key:
Assay in all cases: NCI anticancer screen, dose series, 48 h
SNB-19 = system: SNB-19
LXFL 529 = system: LXFL 529
NCI-H460 = system: NCI-H460
HOP-92 = system: HOP-92
SN12C = system: SN12C
CCRF-CEM = system: CCRF-CEM
OVCAR-3 = system: OVCAR-3
NCI-H226 = system: NCI-H226
TK-10 = system: TK-10
HCT-15 = system: HCT-15
SK-MEL-2 = system: SK-MEL-2
786-0 = system: 786-0
U-251 = system: U-251
SF-268 = system: SF-268
LOX IMVI = system: LOX IMVI
IGROV-1 = system: IGROV-1
DMS-273 = system: DMS-273
HL-60 = system: HL-60
UACC-62 = system: UACC-62
HCC 2998 = system: HCC 2998
EKVX = system: EKVX
A498 = system: A498
RXF 393 = system: RXF 393
NCI-H23 = system: NCI-H23
CAKI-1 = system: CAKI-1
KM-20L2 = system: KM-20L2
SF-295 = system: SF-295
MOLT-4 = system: MOLT-4
UO-31 = system: UO-31
SNB-75 = system: SNB-75
HCT-116 = system: HCT-116
DLD-1 = system: DLD-1
ACHN = system: ACHN
SNB-78 = system: SNB-78
RXF 631 = system: RXF 631
SW-620 = system: SW-620
SK-MEL-28 = system: SK-MEL-28
SR = system: SR
K562 = system: K562
SK-MEL-5 = system: SK-MEL-5
M19-MEL = system: M19-MEL
OVCAR-5 = system: OVCAR-5
XF498 = system: XF498
A549 = system: A549
HT-29 = system: HT-29
OVCAR-8 = system: OVCAR-8
RPMI-8226 = system: RPMI-8226
UACC-257 = system: UACC-257
DMS-114 = system: DMS-114
OVCAR-4 = system: OVCAR-4
SF-539 = system: SF-539
M14 = system: M14
Malme-3M = system: Malme-3M
HOP-62 = system: HOP-62
NCI-H522 = system: NCI-H522
COLO 205 = system: COLO 205
HOP-18 = system: HOP-18
SK-OV-3 = system: SK-OV-3
KM12 = system: KM12

For `CCCNC1=C(C(=O)OCC)C(=O)CO1`, the GI50 (SNB-19) was > 100 µM (inactive), the GI50 (LXFL 529) was > 100 µM (inactive) and the GI50 (NCI-H460) was > 100 µM (inactive). The GI50 (HOP-92) was > 100 µM (inactive), the GI50 (SN12C) was > 100 µM (inactive) and the GI50 (CCRF-CEM) was > 100 µM (inactive). The GI50 (OVCAR-3) was > 100 µM (inactive), the GI50 (NCI-H226) was > 100 µM (inactive) and the GI50 (TK-10) was > 100 µM (inactive). For the same compound, the GI50 (HCT-15) was > 100 µM, the GI50 (SK-MEL-2) was > 100 µM (inactive) and the GI50 (786-0) was > 100 µM (inactive). The GI50 (U-251) was > 100 µM (inactive), the GI50 (SF-268) was > 100 µM (inactive) and the GI50 (LOX IMVI) was > 100 µM (inactive). The GI50 (IGROV-1) was > 100 µM (inactive), the GI50 (DMS-273) was > 100 µM (inactive) and the GI50 (HL-60) was > 100 µM (inactive). For the same compound, the GI50 (UACC-62) was > 100 µM (inactive), the GI50 (HCC 2998) was > 100 µM (inactive) and the GI50 (EKVX) was > 100 µM (inactive). The GI50 (A498) was > 100 µM (inactive), the GI50 (RXF 393) was > 100 µM (inactive) and the GI50 (NCI-H23) was > 100 µM (inactive). The GI50 (CAKI-1) was > 100 µM (inactive), the GI50 (KM-20L2) was > 100 µM (inactive) and the GI50 (SF-295) was > 100 µM (inactive). The GI50 (MOLT-4) was > 100 µM (inactive), the GI50 (UO-31) was > 100 µM (inactive) and the GI50 (SNB-75) was > 100 µM (inactive). The GI50 (HCT-116) was > 100 µM (inactive), the GI50 (DLD-1) was > 100 µM (inactive) and the GI50 (ACHN) was > 100 µM (inactive). The GI50 (SNB-78) was > 100 µM (inactive), the GI50 (RXF 631) was > 100 µM (inactive) and the GI50 (SW-620) was > 100 µM (inactive). The GI50 (SK-MEL-28) was > 100 µM (inactive), the GI50 (SR) was > 100 µM (inactive) and the GI50 (K562) was > 100 µM (inactive). For the same compound, the GI50 (SK-MEL-5) was > 100 µM (inactive), the GI50 (M19-MEL) was > 100 µM (inactive) and the GI50 (OVCAR-5) was > 100 µM (inactive). The GI50 (XF498) was > 100 µM (inactive), the GI50 (A549) was > 100 µM (inactive) and the GI50 (HT-29) was > 100 µM (inactive). For the same compound, the GI50 (OVCAR-8) was > 100 µM (inactive), the GI50 (RPMI-8226) was > 100 µM (inactive) and the GI50 (UACC-257) was > 100 µM (inactive). For the same compound, the GI50 (DMS-114) was > 100 µM (inactive), the GI50 (OVCAR-4) was > 100 µM (inactive) and the GI50 (SF-539) was > 100 µM (inactive). For the same compound, the GI50 (M14) was > 100 µM (inactive) and the GI50 (Malme-3M) was > 100 µM (inactive).
For `Cc1[nH]c(=O)nc(N/N=C/c2ccc(O)cc2)c1C(=O)Nc1ccc(Cl)cc1`, the GI50 (SNB-19) was > 100 µM (inactive), the GI50 (LXFL 529) was > 100 µM (inactive) and the GI50 (NCI-H460) was > 100 µM (inactive). For the same compound, the GI50 (SN12C) was > 100 µM (inactive), the GI50 (CCRF-CEM) was > 100 µM (inactive) and the GI50 (OVCAR-3) was > 100 µM (inactive). The GI50 (NCI-H226) was 65.2 µM (inactive), the GI50 (TK-10) was > 100 µM (inactive) and the GI50 (HCT-15) was > 100 µM. For the same compound, the GI50 (SK-MEL-2) was > 100 µM (inactive), the GI50 (786-0) was > 100 µM (inactive) and the GI50 (U-251) was > 100 µM (inactive). The GI50 (SF-268) was > 100 µM (inactive), the GI50 (HOP-62) was > 100 µM (inactive) and the GI50 (IGROV-1) was > 100 µM (inactive). For the same compound, the GI50 (DMS-273) was > 100 µM (inactive), the GI50 (HL-60) was > 100 µM (inactive) and the GI50 (UACC-62) was > 100 µM (inactive). For the same compound, the GI50 (HCC 2998) was > 100 µM (inactive), the GI50 (NCI-H522) was > 100 µM (inactive) and the GI50 (EKVX) was > 100 µM (inactive). The GI50 (A498) was > 100 µM (inactive), the GI50 (CAKI-1) was > 100 µM (inactive) and the GI50 (COLO 205) was > 100 µM (inactive). For the same compound, the GI50 (KM-20L2) was > 100 µM (inactive), the GI50 (MOLT-4) was > 100 µM (inactive) and the GI50 (UO-31) was > 100 µM (inactive). For the same compound, the GI50 (SNB-75) was > 100 µM (inactive), the GI50 (HCT-116) was > 100 µM (inactive) and the GI50 (DLD-1) was > 100 µM (inactive). The GI50 (ACHN) was > 100 µM (inactive), the GI50 (SNB-78) was > 100 µM (inactive) and the GI50 (RXF 631) was > 100 µM (inactive). For the same compound, the GI50 (SW-620) was > 100 µM (inactive), the GI50 (SK-MEL-28) was > 100 µM (inactive) and the GI50 (SR) was > 100 µM (inactive). For the same compound, the GI50 (K562) was > 100 µM (inactive), the GI50 (SK-MEL-5) was 88.1 µM (inactive) and the GI50 (HOP-18) was > 100 µM (inactive). For the same compound, the GI50 (M19-MEL) was > 100 µM (inactive), the GI50 (A549) was > 100 µM (inactive) and the GI50 (OVCAR-8) was > 100 µM (inactive). The GI50 (RPMI-8226) was > 100 µM (inactive), the GI50 (SK-OV-3) was > 100 µM (inactive) and the GI50 (UACC-257) was > 100 µM (inactive). For the same compound, the GI50 (DMS-114) was > 100 µM (inactive), the GI50 (OVCAR-4) was > 100 µM (inactive) and the GI50 (SF-539) was > 100 µM (inactive). The GI50 (M14) was 45.5 µM (inactive), the GI50 (KM12) was > 100 µM (inactive) and the GI50 (Malme-3M) was > 100 µM (inactive).
For `COC(=O)/C(=N\N)C(C(=O)C(=O)Nc1nnc(S)[nH]1)c1nc2ccc([N+](=O)[O-])cc2nc1O` (configuration not stated), the GI50 (SNB-19) was > 100 µM (inactive), the GI50 (LXFL 529) was > 100 µM (inactive) and the GI50 (NCI-H460) was > 100 µM (inactive). For the same compound, the GI50 (HOP-92) was > 100 µM (inactive), the GI50 (SN12C) was > 100 µM (inactive) and the GI50 (CCRF-CEM) was > 100 µM (inactive). For the same compound, the GI50 (OVCAR-3) was > 100 µM (inactive), the GI50 (NCI-H226) was > 100 µM (inactive) and the GI50 (TK-10) was > 100 µM (inactive). For the same compound, the GI50 (HCT-15) was > 100 µM, the GI50 (SK-MEL-2) was > 100 µM (inactive) and the GI50 (786-0) was > 100 µM (inactive). For the same compound, the GI50 (U-251) was > 100 µM (inactive), the GI50 (SF-268) was > 100 µM (inactive) and the GI50 (HOP-62) was > 100 µM (inactive). The GI50 (LOX IMVI) was > 100 µM (inactive), the GI50 (IGROV-1) was > 100 µM (inactive) and the GI50 (DMS-273) was > 100 µM (inactive). For the same compound, the GI50 (HL-60) was > 100 µM (inactive), the GI50 (UACC-62) was > 100 µM (inactive) and the GI50 (HCC 2998) was > 100 µM (inactive). The GI50 (NCI-H522) was > 100 µM (inactive), the GI50 (EKVX) was > 100 µM (inactive) and the GI50 (A498) was > 100 µM (inactive). For the same compound, the GI50 (RXF 393) was > 100 µM (inactive), the GI50 (NCI-H23) was > 100 µM (inactive) and the GI50 (CAKI-1) was > 100 µM (inactive). For the same compound, the GI50 (COLO 205) was > 100 µM (inactive), the GI50 (KM-20L2) was > 100 µM (inactive) and the GI50 (SF-295) was > 100 µM (inactive). The GI50 (MOLT-4) was > 100 µM (inactive), the GI50 (UO-31) was > 100 µM (inactive) and the GI50 (SNB-75) was > 100 µM (inactive). The GI50 (HCT-116) was > 100 µM (inactive), the GI50 (DLD-1) was > 100 µM (inactive) and the GI50 (ACHN) was > 100 µM (inactive). The GI50 (SNB-78) was > 100 µM (inactive), the GI50 (RXF 631) was > 100 µM (inactive) and the GI50 (SW-620) was > 100 µM (inactive). For the same compound, the GI50 (SK-MEL-28) was > 100 µM (inactive), the GI50 (SR) was > 100 µM (inactive) and the GI50 (K562) was > 100 µM (inactive). For the same compound, the GI50 (SK-MEL-5) was > 100 µM (inactive), the GI50 (HOP-18) was > 100 µM (inactive) and the GI50 (M19-MEL) was > 100 µM (inactive). For the same compound, the GI50 (OVCAR-5) was > 100 µM (inactive), the GI50 (A549) was > 100 µM (inactive) and the GI50 (HT-29) was > 100 µM (inactive). The GI50 (OVCAR-8) was > 100 µM (inactive), the GI50 (RPMI-8226) was > 100 µM (inactive) and the GI50 (SK-OV-3) was > 100 µM (inactive). For the same compound, the GI50 (UACC-257) was > 100 µM (inactive), the GI50 (DMS-114) was > 100 µM (inactive) and the GI50 (OVCAR-4) was > 100 µM (inactive). The GI50 (SF-539) was > 100 µM (inactive), the GI50 (M14) was > 100 µM (inactive) and the GI50 (KM12) was > 100 µM (inactive). For the same compound, the GI50 (Malme-3M) was > 100 µM (inactive).
